# Experimental data from paper PMC3057995, “Potent Anti-Tumor Effect Generated by a Novel Human Papillomavirus (HPV) Antagonist Peptide Reactivating the pRb/E2F Pathway” (PLoS ONE, 2011).
# “Also recorded” adds a separate entry of the source.
# Legend:
# HeLa cells = experiment: Clonogenic assay, HeLa; type: cell-based; conditions: 16 through 160 µM, 8 days, p>0.1
# Description: Cells were seeded in DMEM at 1×10^3 cells/well density in 12-well plates and allowed to attach to the substrate overnight. Thereafter, cells were treated with 0 µM, 16 µM, 32 µM, 80 µM, and 160 µM peptide in DMEM, and the medium was changed every three days. The plates were observed daily for colony formation. After 8 (for HeLa cells) or 14 (for SiHa and CaSki cells) days of treatment, the cultures were washed three times with PBS and stained with crystal violet in ethanol for 15 min. The colonies were then counted and photographed with the Alphalmager® EP image acquisition system (Alpha Innotech, Santa Clara, CA, USA).
# SiHa tumor xenografts = experiment: H/E staining and BrdU-incorporation of tumor tissues; type: in vivo, mouse (Balb/C-nu/nu); conditions: 400 µg/mouse group
# Description: Three or two mice bearing tumor of each group were prelabeled with intra-peritoneal injection of BrdU (100 mg/kg, Sigma-Aldrich, Inc., Aaint Louis, MO, USA) 15 hours before sacrificed. Tumor specimens were then prepared as formalin-fixed, paraffin-embedded sections for hematoxylin-eosin staining, BrdU and pRb immunohistochemical staining as previously described, [57]. In brief, immunostaining was performed on formalin-fixed, paraffin-embedded sections using the anti-pRb monoclonal and anti- BrdU monoclonal antibodies, respectively. Before the application of the primary antibodies, an antigen retrieval technique was performed. […] The antibodies were detected by means of the Strept Avidin-Biotin Complex (SABC) method (Wuhan Boster Biological Technology, Ltd., Wuhan, P.R. China.) according to the manufacturer's instructions. Stained slides were examined under a Nikon ECLIPSE TE2000-U microscope (Nikon Corporation, Tokyo, Japan) and images were collected and analyzed with Pixera Penguin 600CL DiRactor™ (Pixera Corporation, Los Gatos, CA, USA). BrdU or pRb-positive cells were counted in each section. The total cell number was determined by nuclear staining with hematoxylin. At least 1000 total cells for each case were counted.
# SiHa cells = experiment: PI staining cell cycle analysis by flow cytometry; type: cell-based; conditions: for percentage of cells in S-phase: control 25.96%
# Description: Cell cycle distribution was determined by flow cytometry DNA analysis. […] After 24 h, cells were harvested and counterstained with PI (Invitrogen, Carlsbad, CA, USA) for flow cytometry according to the manufacturer's instructions. Briefly, cells were trypsinized and resuspended in 1 ml PBS. Cell suspension was dropped slowly into 4 ml anhydrous ethanol pre-cooled at −20°C and mixed. After standing at −20°C for more than 15 min, the ethanol was removed by centrifugation, after which 5 ml PBS was added and mixed, and cells were re-hydrated at room temperature for 15 min. PBS was then removed by centrifugation. Cells were stained with 2 µg/ml propidium iodide in 1 ml dilution buffer (100 mmol/L Tris, pH 7.4, 150 mmol/L NaCl, 1 mmol/L CaCl2, 0.5 mmol/L MgCl2, 0.1% Nonidet P-40, 100 µg/ml RNAase) at room temperature for 15 min and subjected to flow cytometry analysis. Analysis was performed on an Epics-XL flow cytometer (Beckman Coulter, Inc. CA, USA) with Modfit 3.0 software (Verity Software House, Topsham, ME, USA).
# [1] = tested on: HaCat human keratinocyte cells; experiment: MTT cell viability assay, HaCat; type: cell-based; conditions: HPV-negative, data not shown
# Excerpt: (§1) HPV16-positive SiHa and CaSki cervical carcinoma cells were supplied by China Center for Type Culture Collection (CCTCC). The following cell lines used in this project were from our laboratory: HPV18-positive HeLa cervical carcinoma cells, CNE nasopharyngeal carcinoma cells, HaCat human keratinocyte cells, COS7 (African green monkey SV40-transformed kidney fibroblast cell line), 293T (human kidney epithelial cells), and NIH/3T3 mouse embryonic fibroblast cells. All cells were maintained in a humidified atmosphere of 5% CO2, Dulbecco's modified Eagle's medium (DMEM, pH 7.2), supplemented with 10% fetal calf serum (FCS).
# (§2) Cell viability was determined with an MTT assay. Briefly, the cells were seeded into 96-well plates at a density of 4–5×10^3 cells/well. The cells were allowed to recover for 24 h before the medium was replaced with DMEM supplemented with peptides at different concentrations. The solvent of the peptides was set as the control. The peptide-supplemented medium was replaced daily and the respective concentrations were maintained. The cells were subjected to an MTT cell proliferation assay at different time points. The plates were incubated at 37°C for 3 h with the addition of 20 µl/well MTT (5 mg/ml). Untransformed MTT in the solution was removed by aspiration. […] The optical density of the formazan solutions was measured by microplate reader at 540 nm.
# COS7 = experiment: MTT cell viability assay, Cos7; type: cell-based, African green monkey; conditions: Cos7, HPV-negative; data not shown
# Excerpt: as §1, §2
# HPV18 E7 = experiment: Competitive ELISA with HPV18 E7 anti-serum; type: binding; conditions: peptides 0.08 µM to 800 µM vs HPV18 E7 anti-serum; mean ± SE, three independent experiments
# HPV16E7/pRb interaction = experiment: Co-IP of HPV16 E7 and pRb in Cos7 cells; type: cell-based; conditions: Cos7 co-transfected, 80 µM Pep-7
# Description: For Co-IP, Cos-7 cells seeded in 100 mm plates were co-transfected with HPV16E7-pEYFP-N1 and pRb-pcDNA3.1 using the PEI reagent (Sigma-aldich Chemie GmbH, Steinheim, Germany) described previously. […] Lysate supernate prepared as above were incubated with 10 µl rabbit anti-pRb antibody or mouse anti-flag (negative control) antibody and washed protein G agarose beads (Amersham Biosciences, Little Chalfont, UK) overnight at 4°C under continuous agitation. Beads were subsequently washed four times with the lysis buffer. Bound proteins were eluted by boiling in a Laemmli sample buffer and subjected to western blot assay.
sequence,measurement,setting,value
SACPKGLDWCGG (C&C bridged by disulfide bonds) (disulfide) [Pep-7],colony formation,HeLa cells,not influenced
same,H/E staining and BrdU uptake of tumor tissue,SiHa tumor xenografts,repressed tumor growth
same,percentage of cells in S-phase,"SiHa cells; 32 µM Pep-7, 24 h",14.75%
same,percentage of cells in S-phase,"SiHa cells; 80 µM Pep-7, 24 h",8.75%
same,G1-to-S phase transition,"SiHa cells; 24 h, 32 and 80 µM, p<0.02",inhibited G1-to-S phase transition of SiHa cells significantly; also recorded: induced G1 arrest in SiHa cells
same,cell proliferation (MTT),[1],negligible effect
same,cell proliferation (MTT),COS7,negligible effect
same,binding to HPV18 E7,HPV18 E7,did not bind to HPV18 E7
same,co-immunoprecipitation of HPV16E7 with pRb,HPV16E7/pRb interaction,HPV16E7 could not be immunoprecipitated by the pRb antibodies
